Test results as given in BindingDB's records for patent US20240018157 (Schrödinger, 2024).

target: T1, Mucosa-associated lymphoid tissue lymphoma translocation protein 1 (Homo sapiens, UniProt Q9UDY8); experiment: MALT1 Protease Assay 1
T1 sequence (Q9UDY8 whole entry): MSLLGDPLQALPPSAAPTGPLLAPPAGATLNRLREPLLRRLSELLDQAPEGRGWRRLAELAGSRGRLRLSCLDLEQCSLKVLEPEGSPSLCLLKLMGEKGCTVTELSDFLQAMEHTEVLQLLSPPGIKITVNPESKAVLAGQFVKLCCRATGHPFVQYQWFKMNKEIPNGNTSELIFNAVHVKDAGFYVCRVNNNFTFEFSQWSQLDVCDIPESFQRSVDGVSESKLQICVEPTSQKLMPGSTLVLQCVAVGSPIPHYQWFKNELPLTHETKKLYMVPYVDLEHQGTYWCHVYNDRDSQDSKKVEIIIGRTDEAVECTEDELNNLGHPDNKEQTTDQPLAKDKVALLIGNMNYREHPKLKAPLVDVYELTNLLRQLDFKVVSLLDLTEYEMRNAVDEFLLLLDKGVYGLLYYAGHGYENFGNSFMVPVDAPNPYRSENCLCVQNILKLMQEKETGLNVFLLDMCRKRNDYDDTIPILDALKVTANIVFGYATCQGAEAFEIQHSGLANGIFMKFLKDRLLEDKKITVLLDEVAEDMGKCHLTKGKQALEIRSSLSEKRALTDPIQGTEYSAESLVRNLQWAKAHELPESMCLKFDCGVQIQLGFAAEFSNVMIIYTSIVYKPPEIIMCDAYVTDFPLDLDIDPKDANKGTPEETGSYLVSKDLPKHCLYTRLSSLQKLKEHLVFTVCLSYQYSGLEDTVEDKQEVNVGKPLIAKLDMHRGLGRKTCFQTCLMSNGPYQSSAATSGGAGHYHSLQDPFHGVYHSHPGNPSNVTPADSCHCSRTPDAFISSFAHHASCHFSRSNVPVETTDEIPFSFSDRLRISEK
Experimental: The final assay buffer includes 2 nM of MALT1 full-length protein, 50 μM Ac-LRSR-AMC substrate, 50 mM Tris pH 7.5, 600 mM Sodium Citrate, 1 mM DTT, 1 mM EDTA, and 0.05% BSA in 384-well plate format using black microtiter square well plates (Optiplate 384-F, Perkin Elmer). Test compounds were dissolved in 100% DMSO at stock of 10 mM, with final DMSO concentration 0.1%. Test compounds were pre-incubated with MALT1 protein for 2 h at room temperature. Substrate was added after the pre-incubation and fluorescence signal was measured using Envision at excitation 355 nm and emission 460 nm after 8 hr incubation at RT. Increase in the assay signal was linear over this period and proportional with increase in the enzyme content.

Structure (SMILES) | IC50
C[C@]1(C(F)(F)F)CN(C(=O)Nc2cnc(-n3nccn3)c(Cl)c2)c2cnc3cc(Cl)nn3c21 [US20240018157, Example 15] | 10 to 100 nM
C[C@]1(C2CC2)CN(C(=O)Nc2cnc(-n3nccn3)c(Cl)c2)c2cnc3cc(Cl)nn3c21 [US20240018157, Example 3] | 10 to 100 nM
Cc1cc(NC(=O)N2C[C@@](C)(C(F)(F)F)c3c2cnc2cc(Cl)nn32)cnc1-n1nccn1 [US20240018157, Example 21] | < 10 nM
CO[C@H]1CN(C(=O)Nc2cnc(-n3nccn3)c(Cl)c2)c2cnc3cc(Cl)nn3c2C1(C)C [US20240018157, Example 13] | 10 to 100 nM
C[C@H]1CCN(C(=O)Nc2cnc(-n3nccn3)c(Cl)c2)c2cnc3cc(Cl)nn3c21 [US20240018157, Example 6] | 10 to 100 nM
C[C@@]1(C(F)(F)F)CN(C(=O)Nc2cnc(-n3nccn3)c(Cl)c2)c2cnc3cc(Cl)nn3c21 [US20240018157, Example 16] | < 10 nM
C[C@]1(C(F)(F)F)CN(C(=O)Nc2cnc(-n3nccn3)c(Cl)c2)c2cnc3cc(F)nn3c21 [US20240018157, Example 38] | 10 to 100 nM
C[C@@]1(C(F)(F)F)CN(C(=O)Nc2cnc(-n3cccn3)c(Cl)c2)c2cnc3cc(Cl)nn3c21 [US20240018157, Example 26] | < 10 nM
C[C@@]1(C(F)(F)F)CN(C(=O)Nc2cnc(OC(F)F)c(Cl)c2)c2cnc3cc(Cl)nn3c21 [US20240018157, Example 49] | < 10 nM
COc1ccc(NC(=O)N2C[C@@](C)(C(F)(F)F)c3c2cnc2cc(Cl)nn32)cc1Cl [US20240018157, Example 19] | < 10 nM
C[C@@]1(C(F)(F)F)CN(C(=O)Nc2cnc(-n3nccn3)c(C(F)(F)F)c2)c2cnc3cc(Cl)nn3c21 [US20240018157, Example 40] | < 10 nM
C[C@@H]1CCN(C(=O)Nc2cnc(-n3nccn3)c(Cl)c2)c2cnc3cc(Cl)nn3c21 [US20240018157, Example 5] | < 10 nM
CC1(C)CCN(C(=O)Nc2cnc(-n3nccn3)c(Cl)c2)c2cnc3cc(Cl)nn3c21 [US20240018157, Example 7] | < 10 nM
COCc1ncc(NC(=O)N2C[C@@](C)(C(F)(F)F)c3c2cnc2cc(Cl)nn32)cc1Cl [US20240018157, Example 45] | 10 to 100 nM
CC1(C)c2c(cnc3cc(Cl)nn23)N(C(=O)Nc2cnc(-n3nccn3)c(Cl)c2)C[C@@H]1O [US20240018157, Example 11] | 10 to 100 nM
C[C@@]1(C(F)(F)F)CN(C(=O)Nc2cnc([C@@H]3CCCO3)c(Cl)c2)c2cnc3cc(Cl)nn3c21 [US20240018157, Example 33] | 10 to 100 nM
Cc1cc2ncc3c(n2n1)C(C(F)(F)F)CCN3C(=O)Nc1cnc(-n2nccn2)c(Cl)c1 (stereo not given) [US20240018157, Example 10] | < 10 nM
CO[C@@H]1CN(C(=O)Nc2cnc(-n3nccn3)c(Cl)c2)c2cnc3cc(Cl)nn3c2C1(C)C [US20240018157, Example 14] | 100 to 1000 nM
C[C@@]1(C(F)(F)F)CN(C(=O)Nc2cnc([C@H]3CCCO3)c(Cl)c2)c2cnc3cc(Cl)nn3c21 [US20240018157, Example 34] | < 10 nM
CC1(C)c2c(cnc3cc(Cl)nn23)N(C(=O)Nc2cnc(-n3nccn3)c(Cl)c2)C[C@H]1O [US20240018157, Example 12] | < 10 nM
O=C(Nc1cnc(-n2nccn2)c(Cl)c1)N1CC(C(F)(F)F)c2c1cnc1cc(Cl)nn21 (stereo not given) [US20240018157, Example 2] | < 10 nM
Cn1ccc(-c2ncc(NC(=O)N3C[C@@](C)(C(F)(F)F)c4c3cnc3cc(Cl)nn43)cc2Cl)n1 [US20240018157, Example 25] | < 10 nM
C[C@@]1(C(F)(F)F)CN(C(=O)Nc2cnc([C@H]3CCCCO3)c(Cl)c2)c2cnc3cc(Cl)nn3c21 [US20240018157, Example 47] | 10 to 100 nM
Cc1cc2ncc3c(n2n1)[C@@](C)(C(F)(F)F)CN3C(=O)Nc1cnc(-n2nccn2)c(Cl)c1 [US20240018157, Example 31] | 10 to 100 nM
C[C@@]1(C(F)(F)F)CN(C(=O)Nc2cnc([C@@H]3CCCCO3)c(Cl)c2)c2cnc3cc(Cl)nn3c21 [US20240018157, Example 46] | 10 to 100 nM
C[C@@]1(C(F)(F)F)CN(C(=O)Nc2cnc(-n3nccn3)c(C#N)c2)c2cnc3cc(Cl)nn3c21 [US20240018157, Example 41] | < 10 nM
C[C@@]1(C(F)(F)F)CN(C(=O)Nc2cnc(-n3cc(O)cn3)c(Cl)c2)c2cnc3cc(Cl)nn3c21 [US20240018157, Example 48] | < 10 nM

target: T1, Mucosa-associated lymphoid tissue lymphoma translocation protein 1; experiment: MALT1 Protease Assay 2
Experimental: Test compounds were dissolved in 100% DMSO at stock of 10 mM, with final DMSO concentration 0.1%. Test compounds were pre-incubated with MALT1 protein for 2 h at room temperature.

Structure (SMILES) | IC50
C[C@@]1(C(F)(F)F)CN(C(=O)Nc2ccnc(C(F)F)c2)c2cnc3cc(Cl)nn3c21 [US20240018157, Example 60] | < 10 nM
C[C@@]1(C(F)(F)F)CN(C(=O)Nc2cnc(-n3nccn3)c(Cl)c2)c2cnc3c(F)c(F)nn3c21 [US20240018157, Example 140] | < 10 nM
C[C@@]1(C(F)(F)F)CN(C(=O)Nc2cnc(C(=O)NC3CC3)c(C(F)F)c2)c2cnc3cc(Cl)nn3c21 [US20240018157, Example 150] | < 10 nM
C[C@@]1(C(F)F)CN(C(=O)Nc2cnc(OC(F)F)c(Cl)c2)c2cnc3cc(Cl)nn3c21 [US20240018157, Example 205] | < 10 nM
C[C@@]1(C(F)(F)F)CN(C(=O)Nc2cc(N=S(C)(C)=O)nc(C(F)(F)F)c2)c2cnc3cc(Cl)nn3c21 [US20240018157, Example 83] | < 10 nM
C[C@@]1(C(F)(F)F)CN(C(=O)Nc2cnc([C@@H](O)CO)c(Cl)c2)c2cnc3cc(Cl)nn3c21 [US20240018157, Example 56] | 100 to 1000 nM
C[C@@]1(C2CC2)CN(C(=O)Nc2cnc(-n3nccn3)c(Cl)c2)c2cnc3cc(Cl)nn3c21 [US20240018157, Example 4] | 10 to 100 nM
CCc1cc2ncc3c(n2n1)[C@](C)(C(F)(F)F)CN3C(=O)Nc1cnnc(C(F)F)c1 [US20240018157, Example 195] | 10 to 100 nM
C[C@@]1(C(F)(F)F)CN(C(=O)Nc2cnc(C3(O)CC3)c(Cl)c2)c2cnc3cc(Cl)nn3c21 [US20240018157, Example 67] | 100 to 1000 nM
C[C@@]1(C(F)(F)F)CN(C(=O)n2nc(C(F)(F)F)cc2N)c2cnc3cc(Cl)nn3c21 [US20240018157, Example 175] | > 1000 nM
C[C@@]1(C(F)(F)F)CN(C(=O)Nc2cc(O[C@H]3CCNC3)nc(C(F)(F)F)c2)c2cnc3cc(Cl)nn3c21 [US20240018157, Example 75] | 10 to 100 nM
C[C@@]1(C(F)(F)F)CN(C(=O)Nc2cnnc(C(F)F)c2)c2cnc3c(F)c(F)nn3c21 [US20240018157, Example 142] | 10 to 100 nM
COc1ncc(NC(=O)N2C[C@@](C)(C(F)(F)F)c3c2cnc2cc(Cl)nn32)cc1Cl [US20240018157, Example 18] | < 10 nM
CN1CC(Nc2cc(NC(=O)N3C[C@@](C)(C(F)(F)F)c4c3cnc3cc(Cl)nn43)cc(C(F)(F)F)n2)C1 [US20240018157, Example 169] | > 1000 nM
C[C@@]1(C(F)(F)F)CN(C(=O)Nc2cnc(-n3nccn3)c(C(F)(F)F)c2)c2cnc3cc(F)nn3c21 [US20240018157, Example 181] | < 10 nM
C[C@@]1(C(F)F)CN(C(=O)Nc2cnc(-n3nccn3)c(Cl)c2)c2cnc3cc(Cl)nn3c21 [US20240018157, Example 128] | < 10 nM
Cc1cc(NC(=O)N2C[C@@](C)(C(F)(F)F)c3c2cnc2cc(Cl)nn32)nc2c1cnn2C [US20240018157, Example 176] | > 1000 nM
C[C@@]1(C(F)(F)F)CN(C(=O)Nc2cnc(N=S(C)(C)=O)c(Cl)c2)c2cnc3cc(Cl)nn3c21 [US20240018157, Example 85] | < 10 nM
Cn1cc([C@]2(C(F)(F)F)CN(C(=O)Nc3cnnc(C(F)F)c3)c3cnc4cc(Cl)nn4c32)cn1 [US20240018157, Example 210] | > 1000 nM
C[C@@]1(C(F)(F)F)CN(C(=O)Nc2cnc(-n3nccn3)c(C(F)F)c2)c2cnc3cc(Cl)nn3c21 [US20240018157, Example 35] | < 10 nM
CN(C)Cc1cnn(-c2ncc(NC(=O)N3C[C@@](C)(C(F)(F)F)c4c3cnc3cc(Cl)nn43)cc2Cl)n1 [US20240018157, Example 29] | 10 to 100 nM
Cc1cc2ncc3c(n2n1)[C@](C)(C(F)(F)F)CN3C(=O)Nc1cnc(-n2nccn2)c(Cl)c1 [US20240018157, Example 32] | < 10 nM
COCc1cnn(-c2ncc(NC(=O)N3C[C@@](C)(C(F)(F)F)c4c3cnc3cc(Cl)nn43)cc2Cl)n1 [US20240018157, Example 79] | < 10 nM
